Where two headings read alike, the source gives them in different places.
Assays:
[1] = molecular target: KRas(G12V) (Homo sapiens (Human), UniProt P01116, G12V); experiment: KRas(G12V) GDP HTRF (BODIPY-GDP exchange TR-FRET); type: biochemical
[2] = molecular target: KRas (Homo sapiens (Human), UniProt P01116); experiment: KRas GDP HTRF (BODIPY-GDP exchange TR-FRET); type: biochemical
Outline: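 Inhibition of SOS1-mediated exchange of BODIPY-GDP on KRAS G12D, started with 3 nM recombinant human SOS1 and 300 nM BODIPY-GDP and read after 60 min. TR-FRET excitation 337 nm, ratio 520/490 nm ×10,000. IC50 from 4-parameter Hill fit of normalized data.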

[3] = system: SW480 cells; experiment: SW480 proliferation assay; type: cell-based; conditions: read-out: SW480 Prolif IC50 (G12V)
[4] = system: PC-9 cells; experiment: PC9 proliferation assay; type: cell-based, human; conditions: read-out: PC9 Prolif IC50 (G12V)

Sequence of KRas (P01116-2 other isoform, or with tags, fused parts or gaps): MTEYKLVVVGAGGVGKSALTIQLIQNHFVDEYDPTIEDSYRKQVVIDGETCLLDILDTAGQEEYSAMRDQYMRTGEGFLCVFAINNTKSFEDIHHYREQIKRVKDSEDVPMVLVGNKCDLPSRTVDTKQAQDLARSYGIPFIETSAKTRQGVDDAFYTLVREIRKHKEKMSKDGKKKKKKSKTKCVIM
Sequence of KRas(G12V) (P01116-2 other isoform, or with tags, fused parts or gaps G12V): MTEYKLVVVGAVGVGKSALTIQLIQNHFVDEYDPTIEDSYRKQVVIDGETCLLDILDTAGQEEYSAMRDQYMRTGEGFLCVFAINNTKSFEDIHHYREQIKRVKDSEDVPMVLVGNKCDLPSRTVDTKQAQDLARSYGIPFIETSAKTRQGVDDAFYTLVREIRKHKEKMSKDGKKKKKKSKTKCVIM

Structure (SMILES)	IC50 [1]	IC50 [2]	IC50 ([3]; Homo sapiens, SW480, SW480)	IC50 ([4]; Homo sapiens, PC-9, PC9)	IC50 ([3]; SW480)	IC50 ([4]; PC9)
Cc1cc(N)nc(-c2c(Cl)c3c4c(nc(OCC56CCCN5CCC6)nc4c2F)N([C@H](C)c2cccnc2N)CCO3)c1C(F)(F)F (atropisomer, axis not shown) [Example 147, 6-((R)-4-((R)-1-(2-aminopyridin-3-yl)ethyl)-8-chloro-10-fluoro-2-((tetrahydro-1H-pyrrolizin-7a(5H)-yl)methoxy)-5,6-dihydro-4H-[1,4]oxazepino[5,6,7-de]quinazolin-9-yl)-4-methyl-5-(trifluoromethyl)pyridin-2-amine]	0.06 nM	0.18 nM	44 nM	1300 nM		
Cc1cc(N)nc(-c2c(Cl)c3c4c(nc(OC[C@@]56CCCN5C[C@H](F)C6)nc4c2F)N(Cc2cccnc2N)CCO3)c1C(F)(F)F (single isomer, unassigned) [Example 42b]	55 nM	82 nM			3400 nM	7000 nM
Cc1cc(N)nc(-c2c(Cl)c3c4c(nc(OC[C@@]56CCCN5C[C@H](F)C6)nc4c2F)N([C@H](C)c2cccnc2N)CCO3)c1C(F)(F)F (atropisomer, axis not shown; (aS)) [Example 48, 6-(4-((R)-1-(2-aminopyridin-3-yl)ethyl)-8-chloro-10-fluoro-2-(((2R,7aS)-2-fluoro-hexahydro-1H-pyrrolizin-7a-yl)methoxy)-5,6-dihydro-4H-[1,4]oxazepino[5,6,7-de]quinazolin-9-yl)-4-methyl-5-(trifluoromethyl)pyridin-2-amine]	0.04 nM	0.091 nM			1.4 nM	1500 nM
Nc1ncccc1CN1CCOc2c(Cl)c(-c3cc(O)cc4ccccc34)cc3nc(OC[C@@]45CCCN4C[C@H](F)C5)nc1c23 [Example 61, 4-(4-((2-aminopyridin-3-yl)methyl)-8-chloro-2-(((2R,7aS)-2-fluorotetrahydro-1H-pyrrolizin-7a(5H)-yl)methoxy)-5,6-dihydro-4H-[1,4]oxazepino[5,6,7-de]quinazolin-9-yl)naphthalen-2-ol]	0.86 nM	4.3 nM	940 nM	3100 nM		
Cc1cc(N)nc(-c2c(F)c3c4c(nc(OC[C@@]56CCCN5C[C@H](F)C6)nc4c2F)N([C@H](C)c2cccnc2N)CCO3)c1C(F)(F)F (atropisomer, axis not shown; (aS)) [Example 66a, 6-((R)-4-((R)-1-(2-aminopyridin-3-yl)ethyl)-8,10-difluoro-2-(((2R,7aS)-2-fluorotetrahydro-1H-pyrrolizin-7a(5H)-yl)methoxy)-5,6-dihydro-4H-[1,4]oxazepino[5,6,7-de]quinazolin-9-yl)-4-methyl-5-(trifluoromethyl)pyridin-2-amine]	0.05 nM	0.12 nM	3.1 nM	2800 nM		
Cc1cc(N)nc(-c2c(Cl)c3c4c(nc(OCC5(C)CCOCC5)nc4c2F)N([C@H](C)c2cccnc2N)CCO3)c1C(F)(F)F (atropisomer, axis not shown) [Example 144, 6-((R)-4-((R)-1-(2-aminopyridin-3-yl)ethyl)-8-chloro-10-fluoro-2-((4-methyltetrahydro-2H-pyran-4-yl)methoxy)-5,6-dihydro-4H-[1,4]oxazepino[5,6,7-de]quinazolin-9-yl)-4-methyl-5-(trifluoromethyl)pyridin-2-amine]	1.4 nM	4.4 nM	520 nM	6000 nM		
Cc1cc(N)nc(-c2c(Cl)c3c4c(nc(OC[C@@]56CCCN5C[C@H](F)C6)nc4c2F)N([C@H](C)c2cncc(N)c2)CCO3)c1C(F)(F)F (atropisomer, axis not shown; (aS)) [Example 45, (R)-6-(4-((S)-1-(5-aminopyridin-3-yl)ethyl)-8-chloro-10-fluoro-2-(((2R,7aS)-2-fluorotetrahydro-1H-pyrrolizin-7a(5H)-yl)methoxy)-5,6-dihydro-4H-[1,4]oxazepino[5,6,7-de]quinazolin-9-yl)-4-methyl-5-(trifluoromethyl)pyridin-2-amine]	0.23 nM	0.27 nM	50 nM	6000 nM		
Cc1cc(N)nc(-c2c(Cl)c3c4c(nc(OC[C@H]5C[C@@H]6C[N@@]5CCO6)nc4c2F)N([C@H](C)c2cccnc2N)CCO3)c1C(F)(F)F (atropisomer, axis not shown) [Example 92b, 6-((R)-2-(((1R,5R,7R)-4-oxa-1-azabicyclo[3.2.1]octan-7-yl)methoxy)-4-((R)-1-(2-aminopyridin-3-yl)ethyl)-8-chloro-10-fluoro-5,6-dihydro-4H-[1,4]oxazepino[5,6,7-de]quinazolin-9-yl)-4-methyl-5-(trifluoromethyl)pyridin-2-amine]	0.31 nM	1.89 nM	700 nM	6000 nM		
Cc1cc(N)cc(-c2cc3nc(OC[C@@]45CCCN4C[C@H](F)C5)nc4c3c(c2Cl)OCCN4C)c1C(F)(F)F [Example 39, 3-(8-chloro-2-(((2R,7aS)-2-fluorotetrahydro-1H-pyrrolizin-7a(5H)-yl)methoxy)-4-methyl-5,6-dihydro-4H-[1, 4]oxazepino[5,6,7-de]quinazolin-9-yl)-5-methyl-4-(trifluoromethyl)aniline]	24 nM	140 nM	20000 nM	20000 nM		
Cc1cc(N)nc(-c2c(Cl)c3c4c(nc(OC[C@H]5C[C@H](O)C5)nc4c2F)N([C@H](C)c2cccnc2N)CCO3)c1C(F)(F)F (atropisomer, axis not shown) [Example 145, (1R,3r)-3-((((R)-9-(6-amino-4-methyl-3-(trifluoromethyl)pyridin-2-yl)-4-((R)-1-(2-aminopyridin-3-yl)ethyl)-8-chloro-10-fluoro-5,6-dihydro-4H-[1,4]oxazepino[5,6,7-de]quinazolin-2-yl)oxy)methyl)cyclobutan-1-ol]	0.56 nM	1.2 nM	450 nM	20000 nM		
Cc1cc(N)nc(-c2cc3ncnc4c3c(c2Cl)OCCN4[C@H](C)c2cccnc2N)c1C(F)(F)F [Example 5, (R)-6-(4-(1-(2-aminopyridin-3-yl)ethyl)-8-chloro-5,6-dihydro-4H-[1,4]oxazepino[5,6,7-de]quinazolin-9-yl)-4-methyl-5-(trifluoromethyl)pyridin-2-amine]	1.5 nM	9.2 nM	1500 nM	9000 nM		
Cc1cc(N)nc(-c2c(Br)c3c4c(nc(OC[C@@]56CCCN5C[C@H](F)C6)nc4c2F)N([C@H](C)c2cccnc2N)CCO3)c1C(F)(F)F (atropisomer, axis not shown; (aS)) [Example 88, (R)-6-(4-((R)-1-(2-aminopyridin-3-yl)ethyl)-8-bromo-10-fluoro-2-(((2R,7aS)-2-fluorotetrahydro-1H-pyrrolizin-7a(5H)-yl)methoxy)-5,6-dihydro-4H-[1,4]oxazepino[5,6,7-de]quinazolin-9-yl)-4-methyl-5-(trifluoromethyl)pyridin-2-amine]	0.05 nM	0.12 nM	1.5 nM	3000 nM		
Cc1cc(N)nc(-c2c(Cl)c3c4c(nc(OC[C@@H]5CC[C@H]6COCCN65)nc4c2F)N([C@H](C)c2cncnc2N)CCO3)c1C(F)(F)F (atropisomer, axis not shown; (aS)) [Example 102a, 5-((R)-1-((R)-9-(6-amino-4-methyl-3-(trifluoromethyl)pyridin-2-yl)-8-chloro-10-fluoro-2-(((6S,8aS)-hexahydro-1H-pyrrolo[2,1-c][1,4]oxazin-6-yl)methoxy)-5,6-dihydro-4H-[1,4]oxazepino[5,6,7-de]quinazolin-4-yl)ethyl)pyrimidin-4-amine]	0.094 nM	0.115 nM	19 nM	2200 nM		
Cc1cc(N)nc(-c2c(Cl)c3c4c(nc(OCC5(C#N)CC5)nc4c2F)N([C@H](C)c2cccnc2N)CCO3)c1C(F)(F)F (atropisomer, axis not shown) [Example 153, 1-((((R)-9-(6-amino-4-methyl-3-(trifluoromethyl)pyridin-2-yl)-4-((R)-1-(2-aminopyridin-3-yl)ethyl)-8-chloro-10-fluoro-5,6-dihydro-4H-[1,4]oxazepino[5,6,7-de]quinazolin-2-yl)oxy)methyl)cyclopropane-1-carbonitrile]	0.78 nM	3.3 nM	190 nM	14000 nM		
Cc1cc(N)nc(-c2c(Cl)c3c4c(nc(OCC56COC(C5)C6)nc4c2F)N([C@H](C)c2cccnc2N)CCO3)c1C(F)(F)F [Example 141, 6-((R)-2-((2-oxabicyclo[2.1.1]hexan-4-yl)methoxy)-4-((R)-1-(2-aminopyridin-3-yl)ethyl)-8-chloro-10-fluoro-5,6-dihydro-4H-[1,4]oxazepino[5,6,7-de]quinazolin-9-yl)-4-methyl-5-(trifluoromethyl)pyridin-2-amine]	0.24 nM	0.77 nM	76 nM	8100 nM		
Cc1cc(N)nc(-c2c(Cl)c3c4c(nc(OC[C@@]5(C)CC(F)(F)CN5C)nc4c2F)N([C@H](C)c2cccnc2N)CCO3)c1C(F)(F)F (atropisomer, axis not shown) [Example 122b, 6-((R)-4-((R)-1-(2-aminopyridin-3-yl)ethyl)-8-chloro-2-(((R)-4,4-difluoro-1,2-dimethylpyrrolidin-2-yl)methoxy)-10-fluoro-5,6-dihydro-4H-[1,4]oxazepino[5,6,7-de]quinazolin-9-yl)-4-methyl-5-(trifluoromethyl)pyridin-2-amine]	0.095 nM	0.202 nM	17 nM	9400 nM		

— patent US20240383915A1, “OXAZEPINE COMPOUNDS AND USES THEREOF IN THE TREATMENT OF CANCER” (Genentech, Inc., priority 2021, published 2024)
